The results in this text go back to paper PMC8550792, “Evolution of kinase polypharmacology across HSP90 drug discovery” (Cell Chemical Biology, 2021).

Holding throughout (assay): biochemical
Holding throughout (assay type): biochemical

Assay [1] has as its target T1, 382 unique human kinases (Homo sapiens, UniProt O00238).
T1 construct: purchased Reaction Biology (HotSpot contract assay)
The note with it: kinase ALK6/BMPR1B, compound 10 uM; for remaining activity at 10 µM: read-out: % Enzyme Activity (relative to DMSO controls).

The target of assay [2] is T2, 382 unique human kinases (Homo sapiens, UniProt O95747).
T2 construct: purchased Reaction Biology (HotSpot contract assay)
The settings on record: kinase OSR1/OXSR1, compound 10 uM; for remaining activity at 10 µM: read-out: % Enzyme Activity (relative to DMSO controls).

For assay [3], the target named is T3, 382 unique human kinases (Homo sapiens, UniProt P14616).
T3 construct: purchased Reaction Biology (HotSpot contract assay)
T3 sequence (P14616 27-1297): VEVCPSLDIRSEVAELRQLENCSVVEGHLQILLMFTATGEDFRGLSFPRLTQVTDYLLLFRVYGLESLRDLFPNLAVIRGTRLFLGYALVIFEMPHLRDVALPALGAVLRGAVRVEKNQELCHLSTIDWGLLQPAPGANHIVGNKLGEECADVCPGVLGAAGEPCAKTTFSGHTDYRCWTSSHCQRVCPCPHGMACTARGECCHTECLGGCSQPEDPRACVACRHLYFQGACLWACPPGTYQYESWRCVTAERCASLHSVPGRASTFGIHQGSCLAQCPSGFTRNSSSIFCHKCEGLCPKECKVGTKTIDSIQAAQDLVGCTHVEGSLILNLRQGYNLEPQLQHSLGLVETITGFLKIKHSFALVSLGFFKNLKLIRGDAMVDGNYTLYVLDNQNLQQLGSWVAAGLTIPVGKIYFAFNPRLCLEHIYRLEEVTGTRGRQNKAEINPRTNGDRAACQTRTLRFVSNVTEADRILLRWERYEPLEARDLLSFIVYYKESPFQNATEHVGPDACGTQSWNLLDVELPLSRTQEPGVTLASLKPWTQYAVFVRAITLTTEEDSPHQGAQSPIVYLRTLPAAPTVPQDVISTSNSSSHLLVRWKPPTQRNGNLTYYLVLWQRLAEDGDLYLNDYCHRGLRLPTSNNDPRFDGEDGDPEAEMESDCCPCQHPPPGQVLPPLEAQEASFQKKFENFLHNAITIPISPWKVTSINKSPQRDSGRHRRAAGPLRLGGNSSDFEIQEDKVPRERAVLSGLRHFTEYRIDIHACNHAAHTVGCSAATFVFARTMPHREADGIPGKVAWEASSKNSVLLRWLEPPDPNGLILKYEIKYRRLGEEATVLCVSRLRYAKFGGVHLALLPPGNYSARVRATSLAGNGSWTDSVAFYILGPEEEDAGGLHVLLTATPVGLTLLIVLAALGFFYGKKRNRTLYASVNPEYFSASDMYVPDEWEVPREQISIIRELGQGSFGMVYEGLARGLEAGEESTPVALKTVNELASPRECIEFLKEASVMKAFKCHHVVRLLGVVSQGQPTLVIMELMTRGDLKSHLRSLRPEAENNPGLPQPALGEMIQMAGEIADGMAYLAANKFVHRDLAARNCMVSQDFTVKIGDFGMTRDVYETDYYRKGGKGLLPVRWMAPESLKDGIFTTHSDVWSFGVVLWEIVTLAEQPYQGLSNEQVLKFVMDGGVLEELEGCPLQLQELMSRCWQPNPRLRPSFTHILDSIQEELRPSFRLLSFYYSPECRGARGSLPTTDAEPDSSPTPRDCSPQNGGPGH
The settings on record: kinase IRR/INSRR, compound 10 uM; for remaining activity at 10 µM: read-out: % Enzyme Activity (relative to DMSO controls).

The target of assay [4] is T4, 382 unique human kinases (Homo sapiens, UniProt P16234).
T4 construct: purchased Reaction Biology (HotSpot contract assay)
The settings on record: kinase PDGFRa, compound 10 uM; for remaining activity at 10 µM: read-out: % Enzyme Activity (relative to DMSO controls).

Assay [5] has as its target T5, 382 unique human kinases (Homo sapiens, UniProt P21802, R612T).
T5 construct: purchased Reaction Biology (HotSpot contract assay)
The note with it: FGFR2 (R612T), 10 uM; for remaining activity at 10 µM: read-out: % Enzyme Activity (relative to DMSO controls).

Assay [6] has as its target T6, 382 unique human kinases (Homo sapiens, UniProt P32298).
T6 construct: purchased Reaction Biology (HotSpot contract assay)
The settings on record: kinase GRK4, compound 10 uM; for remaining activity at 10 µM: read-out: % Enzyme Activity (relative to DMSO controls).

Assay [7] deals with T7, 382 unique human kinases (Homo sapiens, UniProt P49760).
T7 construct: purchased Reaction Biology (HotSpot contract assay)
The note with it: CLK2, 10 uM; for remaining activity at 10 µM: read-out: % Enzyme Activity (relative to DMSO controls).

For assay [8], the target named is T8, 382 unique human kinases (Homo sapiens, UniProt Q02763, Y897C).
T8 construct: purchased Reaction Biology (HotSpot contract assay)
The note with it: kinase TIE2 (Y897C), compound 10 uM; for remaining activity at 10 µM: read-out: % Enzyme Activity (relative to DMSO controls).

The target of assay [9] is T9, 382 unique human kinases (Homo sapiens, UniProt Q04771, Q207D).
T9 construct: purchased Reaction Biology (HotSpot contract assay)
T9 sequence (Q04771 21-509 Q207D): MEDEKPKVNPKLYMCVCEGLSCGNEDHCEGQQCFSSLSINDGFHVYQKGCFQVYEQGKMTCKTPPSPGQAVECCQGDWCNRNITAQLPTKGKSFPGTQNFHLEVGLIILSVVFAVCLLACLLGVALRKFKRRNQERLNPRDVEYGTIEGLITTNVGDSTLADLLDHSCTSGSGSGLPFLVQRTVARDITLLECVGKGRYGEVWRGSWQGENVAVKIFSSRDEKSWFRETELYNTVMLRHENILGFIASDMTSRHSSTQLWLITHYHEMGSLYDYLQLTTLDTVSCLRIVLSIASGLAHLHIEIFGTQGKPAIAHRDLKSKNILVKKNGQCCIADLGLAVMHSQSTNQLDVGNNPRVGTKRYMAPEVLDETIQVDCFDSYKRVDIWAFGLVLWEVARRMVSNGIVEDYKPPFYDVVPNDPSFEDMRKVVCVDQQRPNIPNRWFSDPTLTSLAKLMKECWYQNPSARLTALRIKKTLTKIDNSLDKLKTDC
The settings on record: ALK2 (Q207D), compound at 10 uM, duplicate values; for remaining activity at 10 µM: read-out: % Enzyme Activity (relative to DMSO controls).

Assay [10] addresses T10, 382 unique human kinases (Homo sapiens, UniProt Q13882).
T10 construct: purchased Reaction Biology (HotSpot contract assay)
The note with it: BRK, 10 uM; for remaining activity at 10 µM: read-out: % Enzyme Activity (relative to DMSO controls).

In assay [11] the target is T11, 382 unique human kinases (Homo sapiens, UniProt Q9H2G2).
T11 construct: purchased Reaction Biology (HotSpot contract assay)
The note with it: SLK/STK2, 10 uM; for remaining activity at 10 µM: read-out: % Enzyme Activity (relative to DMSO controls).

Assay [12] deals with T12, 382 unique human kinases (Homo sapiens, UniProt Q9HBH9).
T12 construct: purchased Reaction Biology (HotSpot contract assay)
T12 sequence (Q9HBH9 whole entry): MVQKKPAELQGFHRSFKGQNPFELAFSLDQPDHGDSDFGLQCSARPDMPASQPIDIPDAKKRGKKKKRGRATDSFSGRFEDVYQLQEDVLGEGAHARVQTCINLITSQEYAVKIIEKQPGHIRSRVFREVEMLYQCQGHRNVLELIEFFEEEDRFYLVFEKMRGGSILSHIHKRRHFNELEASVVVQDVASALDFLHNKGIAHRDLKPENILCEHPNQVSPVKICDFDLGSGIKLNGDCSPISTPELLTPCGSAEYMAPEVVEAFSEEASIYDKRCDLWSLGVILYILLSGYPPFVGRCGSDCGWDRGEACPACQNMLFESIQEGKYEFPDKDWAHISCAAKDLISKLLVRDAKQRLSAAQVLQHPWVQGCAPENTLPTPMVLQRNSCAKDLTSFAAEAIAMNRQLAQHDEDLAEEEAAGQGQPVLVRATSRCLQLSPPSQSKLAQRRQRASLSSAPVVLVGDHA
The settings on record: kinase MNK2, compound 10 uM; for remaining activity at 10 µM: read-out: % Enzyme Activity (relative to DMSO controls).

The target of assay [13] is T13, 382 unique human kinases (Homo sapiens, UniProt Q9P0L2).
T13 construct: purchased Reaction Biology (HotSpot contract assay)
The settings on record: MARK1, compound at 10 uM, duplicate values; for remaining activity at 10 µM: read-out: % Enzyme Activity (relative to DMSO controls).

The target in assay [14] is T14, 382 unique human kinases (Homo sapiens, UniProt P00519, E255K).
T14 construct: purchased Reaction Biology (HotSpot contract assay)
The settings on record: ABL1 (E255K), [ATP] 5 µM, compound 10 uM; for remaining activity at 10 µM: read-out: % Enzyme Activity (relative to DMSO controls).

In assay [15] the target is T15, 382 unique human kinases (Homo sapiens, UniProt P07947).
T15 construct: purchased Reaction Biology (HotSpot contract assay)
The note with it: YES/YES1, [ATP] 50 µM.

In assay [16] the target is T16, 382 unique human kinases (Homo sapiens, UniProt P10721, D816H).
T16 construct: purchased Reaction Biology (HotSpot contract assay)
The note with it: c-Kit (D816H), [ATP] 5 µM, compound 10 uM; for remaining activity at 10 µM: read-out: % Enzyme Activity (relative to DMSO controls).

For assay [17], the target named is T17, 382 unique human kinases (Homo sapiens, UniProt P22455, N535K).
T17 construct: purchased Reaction Biology (HotSpot contract assay)
The settings on record: FGFR4 (N535K), 10 uM; for remaining activity at 10 µM: read-out: % Enzyme Activity (relative to DMSO controls).

The target in assay [18] is T18, 382 unique human kinases (Homo sapiens, UniProt Q05513).
T18 construct: purchased Reaction Biology (HotSpot contract assay)
T18 sequence (Q05513 1-592): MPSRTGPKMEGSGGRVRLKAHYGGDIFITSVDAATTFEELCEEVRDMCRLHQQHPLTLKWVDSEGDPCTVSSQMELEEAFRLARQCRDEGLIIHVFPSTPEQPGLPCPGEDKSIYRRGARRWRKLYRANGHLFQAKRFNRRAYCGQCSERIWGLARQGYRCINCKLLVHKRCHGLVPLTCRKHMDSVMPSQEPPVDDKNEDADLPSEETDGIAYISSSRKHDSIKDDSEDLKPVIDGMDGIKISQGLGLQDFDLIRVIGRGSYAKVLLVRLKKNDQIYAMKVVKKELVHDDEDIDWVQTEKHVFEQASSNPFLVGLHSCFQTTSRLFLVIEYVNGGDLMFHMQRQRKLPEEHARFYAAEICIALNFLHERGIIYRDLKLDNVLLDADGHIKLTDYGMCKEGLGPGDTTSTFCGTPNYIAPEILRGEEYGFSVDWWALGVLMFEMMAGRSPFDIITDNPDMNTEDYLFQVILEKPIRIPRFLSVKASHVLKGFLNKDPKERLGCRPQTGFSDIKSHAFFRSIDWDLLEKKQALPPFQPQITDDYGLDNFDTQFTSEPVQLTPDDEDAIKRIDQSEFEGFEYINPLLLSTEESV
The settings on record: PKCzeta, 10 uM; for remaining activity at 10 µM: read-out: % Enzyme Activity (relative to DMSO controls).

For assay [19], the target named is T19, 382 unique human kinases (Homo sapiens, UniProt Q15208).
T19 construct: purchased Reaction Biology (HotSpot contract assay)
T19 sequence (Q15208 whole entry): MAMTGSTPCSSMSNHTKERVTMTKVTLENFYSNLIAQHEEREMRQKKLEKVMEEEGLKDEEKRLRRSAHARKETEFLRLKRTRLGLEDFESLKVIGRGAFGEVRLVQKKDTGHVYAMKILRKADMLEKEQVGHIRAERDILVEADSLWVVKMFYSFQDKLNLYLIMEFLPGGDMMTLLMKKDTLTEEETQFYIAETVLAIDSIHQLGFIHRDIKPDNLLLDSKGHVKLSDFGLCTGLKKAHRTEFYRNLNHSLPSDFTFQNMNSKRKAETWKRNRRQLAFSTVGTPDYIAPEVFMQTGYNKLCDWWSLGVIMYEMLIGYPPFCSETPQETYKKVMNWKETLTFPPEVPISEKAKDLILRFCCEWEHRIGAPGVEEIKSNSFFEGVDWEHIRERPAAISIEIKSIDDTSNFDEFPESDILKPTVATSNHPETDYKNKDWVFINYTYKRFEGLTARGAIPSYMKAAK
The settings on record: STK38/NDR1, 10 uM; for remaining activity at 10 µM: read-out: % Enzyme Activity (relative to DMSO controls).

Assay [20] deals with T20, 382 unique human kinases (Homo sapiens, UniProt Q9H2X6).
T20 construct: purchased Reaction Biology (HotSpot contract assay)
T20 sequence (Q9H2X6 whole entry): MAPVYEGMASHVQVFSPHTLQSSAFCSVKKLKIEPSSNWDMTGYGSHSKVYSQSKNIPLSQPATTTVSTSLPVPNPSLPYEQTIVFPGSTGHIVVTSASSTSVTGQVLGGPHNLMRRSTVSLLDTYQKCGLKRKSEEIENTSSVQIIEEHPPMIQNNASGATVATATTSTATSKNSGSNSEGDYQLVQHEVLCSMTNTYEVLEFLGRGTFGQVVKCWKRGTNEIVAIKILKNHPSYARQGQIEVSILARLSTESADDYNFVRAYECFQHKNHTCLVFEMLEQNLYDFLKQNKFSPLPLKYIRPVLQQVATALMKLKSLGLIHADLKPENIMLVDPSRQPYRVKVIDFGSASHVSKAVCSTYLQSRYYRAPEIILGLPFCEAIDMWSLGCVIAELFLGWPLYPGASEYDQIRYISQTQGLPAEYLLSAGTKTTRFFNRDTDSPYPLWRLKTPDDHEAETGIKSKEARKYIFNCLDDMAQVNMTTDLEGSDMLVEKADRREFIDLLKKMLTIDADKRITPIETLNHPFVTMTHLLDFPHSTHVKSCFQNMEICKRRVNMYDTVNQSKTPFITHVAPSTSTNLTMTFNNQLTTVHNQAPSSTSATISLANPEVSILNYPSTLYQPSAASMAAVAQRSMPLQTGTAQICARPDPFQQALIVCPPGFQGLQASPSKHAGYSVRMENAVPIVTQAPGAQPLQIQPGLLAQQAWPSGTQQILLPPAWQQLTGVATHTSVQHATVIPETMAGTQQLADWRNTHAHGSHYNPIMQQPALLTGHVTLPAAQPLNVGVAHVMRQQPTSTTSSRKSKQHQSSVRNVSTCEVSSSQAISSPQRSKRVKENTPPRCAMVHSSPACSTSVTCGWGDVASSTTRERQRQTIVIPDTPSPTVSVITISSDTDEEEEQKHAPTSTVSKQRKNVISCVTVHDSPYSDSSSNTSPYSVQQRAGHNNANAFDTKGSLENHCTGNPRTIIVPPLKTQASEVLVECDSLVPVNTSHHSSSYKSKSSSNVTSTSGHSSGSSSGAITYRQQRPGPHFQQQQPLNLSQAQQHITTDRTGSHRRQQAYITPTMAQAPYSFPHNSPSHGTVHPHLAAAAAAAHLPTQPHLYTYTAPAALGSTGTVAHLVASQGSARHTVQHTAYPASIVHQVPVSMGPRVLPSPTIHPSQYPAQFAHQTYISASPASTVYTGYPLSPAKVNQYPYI
The note with it: HIPK2, 10 uM; for remaining activity at 10 µM: read-out: % Enzyme Activity (relative to DMSO controls).

The target of assay [21] is T21, 382 unique human kinases (Homo sapiens, UniProt Q9Y6E0).
T21 construct: purchased Reaction Biology (HotSpot contract assay)
T21 sequence (Q9Y6E0 whole entry): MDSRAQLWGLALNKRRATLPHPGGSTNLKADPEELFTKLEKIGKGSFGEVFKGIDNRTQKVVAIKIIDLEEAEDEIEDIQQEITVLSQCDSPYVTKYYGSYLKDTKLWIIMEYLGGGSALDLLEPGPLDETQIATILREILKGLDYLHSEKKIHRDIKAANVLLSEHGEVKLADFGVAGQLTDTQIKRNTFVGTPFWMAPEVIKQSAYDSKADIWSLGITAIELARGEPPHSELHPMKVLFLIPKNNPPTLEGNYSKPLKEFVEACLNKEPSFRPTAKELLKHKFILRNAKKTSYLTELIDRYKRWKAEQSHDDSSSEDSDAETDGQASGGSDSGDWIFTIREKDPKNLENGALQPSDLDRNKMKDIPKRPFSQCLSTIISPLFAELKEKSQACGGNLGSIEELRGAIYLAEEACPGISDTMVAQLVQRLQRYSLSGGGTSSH
The note with it: MST3/STK24, [ATP] 20 µM, compound 10 uM; for remaining activity at 10 µM: read-out: % Enzyme Activity (relative to DMSO controls).

Setting [22] is: compound 10 uM, read-out: % Enzyme Activity (relative to DMSO controls).

T5 sequence (P21802 22-821 R612T): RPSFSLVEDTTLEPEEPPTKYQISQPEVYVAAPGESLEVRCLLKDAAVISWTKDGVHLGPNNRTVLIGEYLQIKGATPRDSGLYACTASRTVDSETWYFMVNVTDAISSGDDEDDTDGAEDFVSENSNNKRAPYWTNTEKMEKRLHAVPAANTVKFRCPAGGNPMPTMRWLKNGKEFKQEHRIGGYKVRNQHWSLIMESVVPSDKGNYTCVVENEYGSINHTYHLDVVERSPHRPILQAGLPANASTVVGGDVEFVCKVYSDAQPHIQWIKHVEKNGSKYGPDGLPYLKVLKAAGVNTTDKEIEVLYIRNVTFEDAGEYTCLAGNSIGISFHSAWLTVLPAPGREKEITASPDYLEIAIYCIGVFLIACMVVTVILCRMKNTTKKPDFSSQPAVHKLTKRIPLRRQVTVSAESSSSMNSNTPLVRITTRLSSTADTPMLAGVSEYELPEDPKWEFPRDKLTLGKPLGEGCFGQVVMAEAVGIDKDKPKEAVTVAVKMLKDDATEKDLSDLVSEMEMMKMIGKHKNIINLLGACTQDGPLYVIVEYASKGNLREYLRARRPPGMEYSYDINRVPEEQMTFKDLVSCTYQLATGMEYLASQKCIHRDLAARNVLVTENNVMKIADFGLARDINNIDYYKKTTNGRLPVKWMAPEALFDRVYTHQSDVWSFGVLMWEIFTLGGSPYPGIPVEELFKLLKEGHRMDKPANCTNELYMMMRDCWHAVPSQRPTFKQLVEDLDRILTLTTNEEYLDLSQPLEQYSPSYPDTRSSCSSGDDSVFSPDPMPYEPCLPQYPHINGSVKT

On to `CC(C)c1cc(-c2n[nH]c(=O)n2-c2ccc3c(ccn3C)c2)c(O)cc1O` [Ganetespib (STA9090)], for which the remaining activity at 10 µM at 382 unique human kinases [1] was 94.5%; at 382 unique human kinases [2], 82.7%; on 382 unique human kinases [3], 85.7%; at 382 unique human kinases [4] it was 82.6%; on 382 unique human kinases [5] it was 68.6%; on 382 unique human kinases [6] it was 90%. Also, the remaining activity at 10 µM was found to be 67.1% on 382 unique human kinases [7]; 88% on 382 unique human kinases [8]; 154% on 382 unique human kinases [9]; 67.4% at 382 unique human kinases [10]; 79.5% at 382 unique human kinases [11]; 92% at 382 unique human kinases [12]. The remaining activity at 10 µM at 382 unique human kinases [13] came out at 112%.

Regarding `CC(C)c1cc(-c2n[nH]c(=O)n2-c2ccc3c(ccn3C)c2)c(O)cc1O` [Ganetespib], the remaining activity at 10 µM was determined as 4.77% at 382 unique human kinases [14]; 12.8% on 382 unique human kinases [15] (setting [22]); 46.4% at 382 unique human kinases [16]; 101% on 382 unique human kinases [17]; 92.3% at 382 unique human kinases [18]; 95.7% on 382 unique human kinases [19]. The figures for the remaining activity at 10 µM at 382 unique human kinases [20] and on 382 unique human kinases [21] were 101% and 72.1%, respectively. Also, the remaining activity at 1 µM on 382 unique human kinases [15] (compound 1 uM, read-out: % Enzyme Activity (relative to DMSO controls)) is 45.5%.

Take `CCNC(=O)c1noc(-c2cc(C(C)C)c(O)cc2O)c1-c1ccc(CN2CCOCC2)cc1` [Luminespib (AUY-922)]: the “% Enzyme Activity (relative to DMSO controls)” value worked out at 93.58% at 382 unique human kinases [1]; 102.56% on 382 unique human kinases [2]; 101.61% on 382 unique human kinases [3]; 83.27% on 382 unique human kinases [4]; 112.07% on 382 unique human kinases [5]; 97.37% at 382 unique human kinases [6]. Besides, the “% Enzyme Activity (relative to DMSO controls)” value is 80.06% on 382 unique human kinases [7]; 99.30% at 382 unique human kinases [8]; 101.59% on 382 unique human kinases [9]; 83.67% at 382 unique human kinases [10]; 89.63% on 382 unique human kinases [11]; 103.84% at 382 unique human kinases [12]. For the same compound, the “% Enzyme Activity (relative to DMSO controls)” value on 382 unique human kinases [13] was determined as 104.63%. Further, the remaining activity at 10 µM at 382 unique human kinases [1] was 94.8%; at 382 unique human kinases [2], 103%; on 382 unique human kinases [3], 102%; on 382 unique human kinases [4], 85.4%; at 382 unique human kinases [5], 114%; at 382 unique human kinases [6], 97.7%. Also, the remaining activity at 10 µM came to 80.2% at 382 unique human kinases [7]; 100% at 382 unique human kinases [8]; 106% on 382 unique human kinases [9]; 84.8% on 382 unique human kinases [10]; 90.2% at 382 unique human kinases [11]; 105% at 382 unique human kinases [12]. Besides, the remaining activity at 10 µM on 382 unique human kinases [13] was found to be 110%.

On to `CCNC(=O)c1noc(-c2cc(C(C)C)c(O)cc2O)c1-c1ccc(CN2CCOCC2)cc1` [Luminespib], for which the “% Enzyme Activity (relative to DMSO controls)” value on 382 unique human kinases [14] is on record as 14.20%; at 382 unique human kinases [15] (compound 10 uM) it was 49.59%; at 382 unique human kinases [16], 83.99%; on 382 unique human kinases [17] it was 97.33%; at 382 unique human kinases [18], 101.96%; at 382 unique human kinases [19] it was 98.10%. The “% Enzyme Activity (relative to DMSO controls)” value is 103.59% at 382 unique human kinases [20] and 58.15% at 382 unique human kinases [21]. Moreover, the remaining activity at 10 µM at 382 unique human kinases [14] amounted to 14.7%; on 382 unique human kinases [15] (setting [22]) it was 52.3%; on 382 unique human kinases [16], 84.3%; on 382 unique human kinases [17], 101%; at 382 unique human kinases [18] it was 102%; on 382 unique human kinases [19] it was 99%. For the same compound, the results for the remaining activity at 10 µM on 382 unique human kinases [20] and on 382 unique human kinases [21] were 105% and 60%, respectively.
